In ChEMBL document CHEMBL1154867, “Cytotoxic halogenated metabolites from the Brazilian red alga Laurencia catarinensis” (J Nat Prod, 2010):

What was measured:
Format in all cases: functional, cell-based
[1] = tested on: MCF7; assay: Cytotoxicity against human MCF7 cells after 24 hrs by MTT assay; settings: MCF7, 24 h
[2] = tested on: HT-29; assay: Cytotoxicity against human HT-29 cells after 24 hrs by MTT assay; settings: HT-29, 24 h
[3] = tested on: A-431; assay: Cytotoxicity against human A431 cells after 24 hrs by MTT assay; settings: A-431, 24 h

| Structure (SMILES) | IC50 [1] [µM] | IC50 [2] [µM] | IC50 [3] [µM] |
| --- | --- | --- | --- |
| CC(=O)O[C@H]1C[C@@](C)(Cl)[C@H](Br)C[C@@H]1[C@]1(C)OC(C)(C)[C@@H](Br)C[C@@H]1O | 11.7 | 12.4 | 13.1 |
| CC(=O)O[C@H]1C[C@H](Br)C(C)(C)O[C@@]1(C)[C@H]1C[C@@H](Br)[C@](C)(Cl)C[C@@H]1O | 73.6 | 70.4 | 72.1 |
| CC(=O)O[C@H]1C[C@@](C)(Cl)[C@H](Br)C[C@@H]1[C@]1(C)OC(C)(C)[C@@H](Br)C[C@@H]1OC(C)=O | > 100 | > 100 | > 100 |
| CC(=O)O[C@H]1C[C@@](C)(Cl)[C@H](Br)C[C@@H]1[C@@]1(C)CC[C@H](Br)C(C)(C)O1 | 52.4 | 48.8 | 54.9 |
| CC1(C)O[C@@](C)([C@@H]2CC[C@@](C)(Cl)[C@H](Br)C2)CC[C@H]1Br | > 100 | > 100 | > 100 |
| CO[C@@]1(C)OC(=O)C=C1[C@@H]1CC[C@@](C)(Cl)[C@H](Br)C1 (relative stereo) | 89 | 85.6 | 91.7 |
| CO[C@]1(C)OC(=O)C=C1[C@@H]1CC[C@@](C)(Cl)[C@H](Br)C1 (relative stereo) | > 100 | > 100 | > 100 |
| CC(=O)O[C@H]1C[C@H](Br)C(C)(C)O[C@@]1(C)[C@@H]1CC[C@@](C)(Cl)[C@H](Br)C1 [ACETYLCAESPITOL] | 17.6 | 16.1 | 17.4 |
| CC1(C)C=CC(=O)[C@](C)([C@@H]2CC[C@@](C)(Cl)[C@H](Br)C2)O1 [CAESPITENONE] | 19.7 | 18.9 | 21.6 |
| CC1(C)O[C@](C)([C@H]2CC[C@](C)(Cl)[C@@H](Br)C2)[C@H](O)C[C@H]1Br [CAESPITOL] | 9.7 | 7.6 | 10.2 |
| CC1(C)O[C@@](C)([C@@H]2CC[C@](C)(Br)[C@@H](Cl)C2)CC[C@@H]1Br [DEOXY ISOCAESPITOL] | 31.7 | 27.3 | 30.7 |
| CC1(C)O[C@@](C)([C@@H]2CC[C@@](C)(Cl)[C@H](Br)C2)CC[C@@H]1Br [DEOXYCAESPITOL] | 11.2 | 12.5 | 13.1 |
| C[C@]1(O)OC(=O)C=C1[C@@H]1CC[C@@](C)(Cl)[C@H](Br)C1 [FUROCAESPITANELACTOL] | > 100 | > 100 | > 100 |
| CC1(C)O[C@@](C)([C@@H]2CC[C@](C)(Br)[C@@H](Cl)C2)[C@@H](O)C[C@@H]1Br [ISOCAESPITOL] | > 100 | > 100 | > 100 |
| CCCCCCCCCCCCCCCCOP(=O)([O-])OCC[N+](C)(C)C [MILTEFOSINE] | 42.3 | 48.6 | 53.7 |
